The conditions of data set [1]: patients, cited from earlier work; for Mean body weight increase over a period of ten weeks: Allison et al., Am J. Psychiatry 1999.
The subject of data set [2] is tyrosine aminotransferase (TAT) in HepG2 cells. The note with it: HepG2 human liver hepatocellular carcinoma cell line; cited from earlier work.
The conditions of data set [3]: olanzapine prescribing information; cited from earlier work.
The procedure of data set [4]: The dose level tested in our Phase 1b trial was 600 mg/day.
A 2-week, single-center, double-blind, randomized, placebo-controlled study was conducted in healthy male subjects age 18-55 years with BMI between 18-25 kg/m^2 and a stable body weight (defined as the Day 1 pre-dose body weight to be within ±2.0% of screening body weight). […] Food was freely available to all subjects during the study. The difference in mean change in absolute body weight after administration of OLZ+PBO compared to OLZ+MIRI was evaluated using a repeated measures model with imputation applied to missing values.
(HOMA2-IR values were calculated from fasted glucose and insulin levels using the HOMA (HOMA2 Model) Calculator® application programming interface for SAS (Oxford University 2013, available at the website www.dtu.ox.ac.uk/homacalculator)).

For data set [5] the following is noted: patients; doubled from 1.3±0.5 at baseline; Ebenbichler et al. 2003; cited from earlier work.
[6] abbreviates: healthy male subjects, listed as miricorilant = MIRI 600 mg/day + OLZ 10 mg/day, listed as olanzapine = placebo + OLZ 10 mg/day.
The mark [7] stands for this setting: healthy male subjects, listed as miricorilant = MIRI 600 mg/day + OLZ, listed as olanzapine = placebo + OLZ 10 mg/day, unit given in Table 1, not in Table 2.
The mark [8] stands for this setting: healthy male subjects, listed as miricorilant = olanzapine+miricorilant, listed as olanzapine = olanzapine+placebo.
Where [9] appears, read: healthy male subjects, listed as miricorilant = olanzapine+miricorilant, listed as olanzapine = olanzapine+placebo, from Table 2 with Table 1 baselines.

Structures are written as SMILES. “And” between values parts separate entries of the source, which are not always exact repeats. Equal values may be shown once.

Take `OCCOCCN1CCN(C2=Nc3ccccc3Sc3ccccc32)CC1` [quetiapine]: the “Weight gained after treatment for a "short time"” value in data set [1] (Allison et al. 2001) is on record as “about 3 kg”.
As for `O=C1NCCN1CCN1CCC(c2cn(-c3ccc(F)cc3)c3ccc(Cl)cc23)CC1` [sertindole], the “Mean body weight increase over a period of ten weeks” value in data set [1] is 2.92 kg.
As to `Cc1nc2n(c(=O)c1CCN1CCC(c3noc4cc(F)ccc34)CC1)CCCC2` [risperidone], the “Weight gained over 8-12 weeks” value in data set [1] (Allison et al. 2001) is 2 to 3 kg.
Turning to `CC#C[C@]1(O)CC[C@H]2[C@@H]3CCC4=CC(=O)CCC4=C3[C@@H](c3ccc(N(C)C)cc3)C[C@@]21C` [mifepristone], the “Effect on activity of tyrosine aminotransferase (TAT) in HepG2 cells” value in data set [2] is recorded as “decreases”.
`Cc1cc2c(s1)Nc1ccccc1N=C2N1CCN(C)CC1` [olanzapine, reference compound]: in data set [3], the “Adult patients with triglyceride increases of ≥50 mg/dL at 12 weeks” value was about 40% and the “Adult patients with triglyceride increases of ≥50 mg/dL at 48 weeks” value is recorded as “more than 60%”. In data set [4] (setting [6]), the “Body weight increase from baseline on Day 8” value is 3.5 kg and 3.49 kg; the “Body weight increase from baseline on Day 15” value is 5.0 kg and 4.99 kg; the “HOMA2-IR increase from baseline on Day 8” value is 1.15; the “Insulin increase from baseline on Day 8” value stood at 9.14 mIU/L. The “Insulin increase from baseline on Day 15” value in data set [4] (setting [6]) is reported as 9.65 mIU/L. For the same compound, in data set [4] (setting [7]), the “Triglycerides increase from baseline on Day 8” value is on record as 1.09 mmol/L and the “Triglycerides increase from baseline on Day 15” value is 0.62 mmol/L. Moreover, in data set [4] (setting [8]), the “Insulin increase from baseline, percent, day 15” value turned out to be 127%; the “Triglycerides increase from baseline, percent, day 8” value came to 115%; the “Triglycerides increase from baseline, percent, day 15” value is given as 65%. Further, in data set [4] (setting [9]), the “Body weight increase from baseline, percent of baseline, day 8” value was found to be 4.9% and the “Body weight increase from baseline, percent of baseline, day 15” value was 6.9%. For the same compound, the “Number of participants who discontinued the study due to elevated liver enzymes” value in data set [4] (male, human, in vivo, 14 days) is 5. For the same compound, the “HOMA-IR after 8 weeks of olanzapine treatment” value in data set [5] is 2.6±1.4 mmol/mU·L. For the same compound, the “Weight gained after about 40 weeks of administration” value in data set [1] (Allison et al. 2001) was 7 to 8 kg.
For `CN1CCN(C2=Nc3cc(Cl)ccc3Nc3ccccc32)CC1` [clozapine], the “Mean body weight increase over a period of ten weeks” value in data set [1] is reported as 4.45 kg.

These data come from US11903945B2, “Methods of treating antipsychotic-induced weight gain with miricorilant” (Corcept Therapeutics Incorporated, priority 2019, dated 2024).
